Test results taken from patent publication US8722937B2 (priority 2006, dated 2014).
Values after ≈ are worked out from the molar mass of the structure shown. Where two headings read alike, the source gives them in different places. Marks after values point to notes of the source that are not given here.

How the values were obtained:
B. anthracis = settings: cited from earlier work
MRSA (ATCC 43300) [1] = settings: cited from earlier work
S. aureus (ATCC 25923) [2] = settings: MSSA ATCC 25923; data taken from ref. 6; cited from earlier work
[3] = target: FabH derived from M. tuberculosis (mtFabH) (Mycobacterium tuberculosis, UniProt P9WNG3); settings: 10 µM
S. aureus (ATCC 25923) [4] = settings: MSSA ATCC 25923; data from ref. 6 (PenG, 2g) or ref. 52 (vancomycin); cited from earlier work
[5] = test system: methicillin-resistant S. aureus (MRSA); settings: MRSA ATCC 43300; data taken from ref. 6; cited from earlier work
[6] = target: T1, FabH derived from E. coli (ecFabH) (Escherichia coli, UniProt P0A6R0); assay: FabH enzyme assay (coupled trichloroacetic acid precipitation assay), ecFabH; assay type: biochemical
T1 construct: polyhistidine (N); made in house; host or cells: E. coli
T1 sequence (P0A6R0 1-317): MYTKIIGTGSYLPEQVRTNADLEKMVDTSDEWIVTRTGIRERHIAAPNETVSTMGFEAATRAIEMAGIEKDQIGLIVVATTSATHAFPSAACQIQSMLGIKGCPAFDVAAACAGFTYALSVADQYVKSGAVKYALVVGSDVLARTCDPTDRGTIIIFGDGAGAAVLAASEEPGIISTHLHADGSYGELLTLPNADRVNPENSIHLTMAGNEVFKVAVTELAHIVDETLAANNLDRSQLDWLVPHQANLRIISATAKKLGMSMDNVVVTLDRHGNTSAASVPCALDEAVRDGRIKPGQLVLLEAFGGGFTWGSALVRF

[7] = test system: methicillin-resistant S. aureus (MRSA); assay: microbe, parasite or virus in culture; assay type: cell-based, Staphylococcus aureus
S. aureus (ATCC 25923) [8] = assay: Agar dilution minimum inhibitory concentration (MIC), S. aureus; assay type: cell-based, Staphylococcus aureus
S. aureus (ATCC 25923) [9] = assay: microbe, parasite or virus in culture; assay type: cell-based, Staphylococcus aureus; settings: for zone of inhibition at 20 µg/disc: Staphylococcus aureus, ATCC25923, 24 h, 37° C.
MRSA (ATCC 43300) [10] = assay: Minimum inhibitory concentration (MIC), MRSA; assay type: cell-based, Staphylococcus aureus
M. tuberculosis = settings: reported by Jones et al.; cited from earlier work
B. anthracis (USF 848) [11] = assay: microbe, parasite or virus in culture; assay type: cell-based, Bacillus anthracis; settings: Bacillus anthracis, 24 h, 37° C.
[12] = test system: E. coli (K12; ATCC 23590); assay: Kirby-Bauer zones of inhibition, E. coli; assay type: cell-based, Escherichia coli; settings: K12 strain, ATCC 23590
[13] = test system: E. coli (K12; ATCC 23590); assay: Minimum inhibitory concentration (MIC), E. coli; assay type: cell-based; settings: Escherichia coli, ATCC23590, read-out: MIC (μg/mL) against E. coli
B. anthracis (USF 848) [14] = assay: microbe, parasite or virus in culture; assay type: cell-based, Bacillus anthracis; settings: Bacillus anthracis, read-out: Minimum inhibitory concentration (MIC) against B. anthracis (USF 848)
[15] = MRSA ATCC 43300, data taken from ref. 6

Sequence of FabH derived from M. tuberculosis (mtFabH) (P9WNG3 whole entry): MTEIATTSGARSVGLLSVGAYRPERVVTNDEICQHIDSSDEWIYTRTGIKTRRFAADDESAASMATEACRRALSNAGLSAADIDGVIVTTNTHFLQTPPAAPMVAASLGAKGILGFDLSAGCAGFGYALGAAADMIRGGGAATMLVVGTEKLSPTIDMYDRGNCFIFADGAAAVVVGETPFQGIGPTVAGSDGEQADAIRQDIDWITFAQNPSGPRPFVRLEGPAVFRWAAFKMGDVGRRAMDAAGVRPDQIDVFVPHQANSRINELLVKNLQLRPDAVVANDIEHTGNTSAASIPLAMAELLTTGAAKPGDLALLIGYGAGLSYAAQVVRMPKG

Structure (SMILES): O=C(O)c1cn(C2CC2)c2cc(N3CCNCC3)c(F)cc2c1=O [Ciprofloxacin]
- reported value for Ciprofloxacin (for 50% growth inhibition) (B. anthracis): 0.094

Structure (SMILES): CCC(C)SN1C(=O)C(OC)C1c1ccccc1Cl (centres unmarked) [Compound 2g]
- MIC (MRSA) (MRSA (ATCC 43300) [1]; [15]): 0.25 µg/mL (≈ 0.834 µM)
- Zone (MSSA) (S. aureus (ATCC 25923) [2]): 32^c mm
- Percent inhibition of mtFabH [3]: 4%
- MIC (MSSA) (S. aureus (ATCC 25923) [4]): 0.25 µg/mL (≈ 0.834 µM)
- Zone (MRSA) [5]: 34 mm
- Percent inhibition of ecFabH ([6]; 1 μM of test compound): 30%

Structure (SMILES): CSN1C(=O)OCC1c1ccccc1 (centres unmarked) [Compound 13, reference compound]
- Zone (MRSA) [7]: 28 mm
- MIC (MSSA) (S. aureus (ATCC 25923) [8]; MSSA ATCC 25923): 4 µg/mL (≈ 19.1 µM)
- Zone (MSSA) (S. aureus (ATCC 25923) [9]): 29 mm
- MIC (MRSA) (MRSA (ATCC 43300) [10]): 8 µg/mL (≈ 38.2 µM)

Structure (SMILES): CC(C)CCCCCCCS(=O)(=O)CC(N)=O [Compound 30]
- activity against M. tuberculosis, in words (M. tuberculosis): good activity

Structure (SMILES): CSSc1ccc([N+](=O)[O-])cc1 [Compound 38a, p-Nitrophenyl Methyl Disulfide]
- zone of inhibition at 20 µg/disc (B. anthracis (USF 848) [11]; read-out: Zones of growth inhibition of B. anthracis (USF 848)): 47 mm
- zone of inhibition at 20 µg/disc (B. anthracis (USF 848) [11]; read-out: Zones of growth inhibition of B. anthracis (USF 848), areas of partial growth inhibition): 54 mm
- zone of inhibition at 20 µg/disc ([7]; Staphylococcus aureus, MRSA, 24 h, 37° C., read-out: Average zones of growth inhibition of MRSA (USF-652-659, 919-920)): 23 mm
- MIC (S. aureus (ATCC 25923) [8]; Staphylococcus aureus, ATCC25923, serial dilution in 24-well plate, NCCLS, read-out: Minimum inhibitory concentration (MIC) against S. aureus (ATCC 25923)): 16 µg/mL (≈ 79.5 µM)
- Zone of Inhibition (mm), E. coli, zones of partial inhibition ([12]; number in parentheses): 24 mm
- Zone of Inhibition (mm), E. coli ([12]; number outside parentheses): 17 mm
- MIC [13]: 16 µg/mL (≈ 79.5 µM)
- zone of inhibition at 20 µg/disc (S. aureus (ATCC 25923) [9]; read-out: Zones of growth inhibition of S. aureus (ATCC 25923)): 30 mm
- zone of inhibition at 20 µg/disc (S. aureus (ATCC 25923) [9]; read-out: Zones of growth inhibition of S. aureus (ATCC 25923), areas of partial inhibition): 35 mm
- melting point: 29 to 32 °C
- inhibition at 5 µM ([6]; 5 μM of test compound, read-out: Percent inhibition of FabH derived from E. coli, ecFabH (%)): 94%
- MIC (B. anthracis (USF 848) [14]): 0.25 µg/mL (≈ 1.24 µM)

Structure (SMILES): CC1(C)S[C@@H]2[C@H](NC(=O)Cc3ccccc3)C(=O)N2[C@H]1C(=O)O [PenG., penicillin G, reference compound]
- MIC (MRSA) (MRSA (ATCC 43300) [1]; [15]): 64 µg/mL (≈ 191 µM)
- Zone (MSSA) (S. aureus (ATCC 25923) [2]): 33 mm
- MIC (MSSA) (S. aureus (ATCC 25923) [4]): 0.03 µg/mL (≈ 0.0897 µM)
- Zone (MRSA) [5]: 14 mm

Structure (SMILES): CN[C@H](CC(C)C)C(=O)N[C@H]1C(=O)N[C@@H](CC(N)=O)C(=O)N[C@H]2C(=O)N[C@H]3C(=O)N[C@H](C(=O)N[C@H](C(=O)O)c4cc(O)cc(O)c4-c4cc3ccc4O)[C@H](O)c3ccc(c(Cl)c3)Oc3cc2cc(c3O[C@@H]2O[C@H](CO)[C@@H](O)[C@H](O)[C@H]2O[C@H]2C[C@](C)(N)[C@H](O)[C@H](C)O2)Oc2ccc(cc2Cl)[C@H]1O [Vanc., Vancomycin, reference compound]
- Zone (MRSA) [7]: 22 mm
- MIC (MRSA) (MRSA (ATCC 43300) [1]; MRSA 67, as reported by ref. 52): 0.39^d μg/mL
- MIC (MSSA) (S. aureus (ATCC 25923) [4]): 0.78^d μg/mL
- Zone (MSSA) (S. aureus (ATCC 25923) [9]): 27 mm
